This is an account of results in publication PMC4104029, “Mechanism of Action of Compound-13: An α1-Selective Small Molecule Activator of AMPK” (Chemistry & Biology, 2014).

Assay [1] concerns 5′-nucleotidase. Description: 5′-Nucleotidase assay. In kind it is biochemical. The conditions noted are these: concentrations up to 100 μM; data not shown. As for the experimental part: Additional enzyme assays. Glycogen phosphorylase (EC 2.4.1.1) was assayed in the physiological direction in reactions containing 20 mM BES pH 6.8, 20 mM phosphate, 1 mM NADP+, 0.5 mM MgCl2, 0.1 % glycogen, 4 µM glucose-1,6-bisphosphate, 0.5 mM DTT, 0.025 % BSA, 0.6 U/ml phosphoglucomutase and 3 U/ml glucose-6-phosphate dehydrogenase (G6PDH). FBP1 (EC 3.1.3.11) was assayed in reactions containing 50 mM TES pH 7.4, 0.1 […]
mM 2-mercaptoethanol, 25 µM fructose-1,6-bisphosphate, 0.8 U/ml phosphoglucoisomerase and 0.5 U/ml G6PDH. PFK1 (EC 2.7.1.11) was assayed in reactions containing 50 mM TES pH 7.4, 2 mM MgCl2, 0.05 % BSA, 2 mM 2-mercaptoethanol, 0.5 mM fructose-6-phosphate, 1 mM ATP, 0.2 mM NADH, 0.5 U/ml aldolase, 15 U/ml triosephosphate isomerase and 2 U/ml α-glycerophosphate dehydrogenase. […] All assays were performed in a final volume of 250 µl and were monitored by changes in fluorescence (FBP1 - λex 340nm, λem 450nm) or A340. […] Liberated phosphate was determined using malachite green reagent. […] The formation of pyrophosphate (PPi) was monitored by reduction of PPi-molybdate complexes using 2-mercaptoethanol and Fiske-Subbarow reducer (Kuang, et al., 2007). […]
Tricistronic expression vectors were constructed using a strategy inspired by Neumann et al (Neumann, et al., 2003). […] The open reading frame of AMPKα1 and AMPKα2 was inserted after the 6×His tag as a Bamh1-Not1 fragment. […]

The test system of assay [2] is AMPK-KO (AMPKα1−/− -α2−/−) hepatocytes. As to the kind of experiment: Lipid synthesis, [1-14C]acetate incorporation. In kind it is cell-based, mouse. The procedure:
Figure 5 C13 Inhibits Lipid Synthesis and Fatty Acid Esterification in Mouse Hepatocytes in an AMPK-Dependent Manner (A) Mouse hepatocytes were treated with the indicated concentrations of C13 and labeled with [1-^14C]acetate for 3 hr. A769662 (100 μM) and AICAR (0.5 mM) were included as positive controls. Rates of fatty acid and sterol synthesis were estimated by incorporation into saponifiable and nonsaponifiable lipids. Results are expressed as the mean acetate incorporated in micromoles per gram-hour ± SD and are representative of two independent experiments. […] Incorporation into triglyceride was determined as described in Experimental Procedures and results are expressed as palmitate incorporated in micromoles per gram-hour ± SD and are representative of three independent experiments. […] Results are expressed as percentage WT vehicle and represent the mean ± SD for three independent experiments. […]
Lipid synthesis was determined by labeling adherent cultures of primary hepatocytes with [1-^14C]acetate. […] Lipogenesis in hepatocytes from AMPKβ1/β2-KO mice was determined in media containing [^3H]acetate (0.2 mCi⋅mmol^−1). After 4 hr labeling, total lipids were extracted using the method of [Bligh and Dyer (1959)], and incorporated [^3H] was determined by scintillation counting. The results are expressed as micromoles acetate incorporated per gram-hour.

For `O=P(O)(O)c1ccc(-c2cc(O)on2)o1` [Compound C2, 5-(5-hydroxyl-isoxazol-3-yl)-furan-2-phosphonic acid], the “effect on enzyme activity” value in assay [1] is reported as “None of these enzymes were affected”.

As to `CC(C)C(=O)OCOP(=O)(OCOC(=O)C(C)C)c1ccc(C2=NOC(=O)C2)o1` [Compound C13], the anti-lipogenic effect entry in assay [2] is on record as “resistant”. Besides, the impairment of lipogenesis result in assay [2] (highest concentrations of C13) is recorded as “≈ 20%”.
